# Laboratory results taken from ChEMBL document CHEMBL1201862, “PubChem BioAssay data set” (2004).
# Calls of active or inactive are those of the source.
# What was measured:
# [1] = test system: HEK293; test: inhibition of NOD1-driven NF-kB reporter – cell-based, luminescence, uHTS, primary screen (AID 1578); type: functional; details: Homo sapiens
# [2] = test system: HEK293; test: cells; type: functional, cell-based; details: Homo sapiens
# [3] = test system: HEK293; test: cells; type: functional, cell-based; details: Homo sapiens; remark: listed apart in the source
# [4] = target: Nucleotide-binding oligomerization domain-containing protein 2 (Homo sapiens, UniProt Q9HC29); test: inhibition of NOD2-driven NF-kB reporter – cell-based, luminescence, uHTS, HEK293 (AID 1566); type: functional
# Nucleotide-binding oligomerization domain-containing protein 2, sequence (Q9HC29 whole entry, the tested form may be a part): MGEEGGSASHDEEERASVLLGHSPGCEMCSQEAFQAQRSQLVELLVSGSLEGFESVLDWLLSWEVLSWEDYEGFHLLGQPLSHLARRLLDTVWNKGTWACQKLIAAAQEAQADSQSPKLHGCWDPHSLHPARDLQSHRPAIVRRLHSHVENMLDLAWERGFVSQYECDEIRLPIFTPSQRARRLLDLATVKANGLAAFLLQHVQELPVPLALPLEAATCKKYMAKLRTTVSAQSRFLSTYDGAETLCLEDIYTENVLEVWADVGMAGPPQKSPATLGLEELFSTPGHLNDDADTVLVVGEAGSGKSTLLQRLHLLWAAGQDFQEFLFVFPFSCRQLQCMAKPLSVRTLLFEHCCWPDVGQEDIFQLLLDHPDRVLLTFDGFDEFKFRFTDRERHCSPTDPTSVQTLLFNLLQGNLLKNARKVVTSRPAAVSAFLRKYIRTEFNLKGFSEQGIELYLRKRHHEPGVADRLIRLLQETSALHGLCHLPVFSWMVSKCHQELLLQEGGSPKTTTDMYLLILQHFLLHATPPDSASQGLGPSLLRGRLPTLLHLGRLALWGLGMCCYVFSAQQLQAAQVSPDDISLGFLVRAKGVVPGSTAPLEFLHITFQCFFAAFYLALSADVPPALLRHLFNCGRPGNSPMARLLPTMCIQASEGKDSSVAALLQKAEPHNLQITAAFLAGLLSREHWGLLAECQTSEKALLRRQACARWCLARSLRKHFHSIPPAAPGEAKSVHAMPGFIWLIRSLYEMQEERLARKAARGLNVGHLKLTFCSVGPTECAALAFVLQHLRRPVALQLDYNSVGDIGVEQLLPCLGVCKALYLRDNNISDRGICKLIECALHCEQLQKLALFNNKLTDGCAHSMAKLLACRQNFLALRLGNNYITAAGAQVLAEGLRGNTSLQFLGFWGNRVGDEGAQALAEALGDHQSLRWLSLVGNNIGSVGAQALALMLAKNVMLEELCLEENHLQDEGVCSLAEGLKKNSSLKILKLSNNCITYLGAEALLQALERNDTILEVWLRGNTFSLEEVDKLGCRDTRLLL
# [5] = test system: HEK293; test: NOD2 signaling inhibitors in MDP-stimulated cells, cell-based, uHTS, luminescence (AID 2001); type: functional; details: Homo sapiens
# [6] = test system: HEK293; test: cells; type: functional, cell-based; details: Homo sapiens; remark: listed apart in the source
# [7] = target: T1, Heat shock factor protein 1 (Mus musculus, UniProt P38532); test: enhancement of HSF1-driven luciferase signal – cell-based, NIH3T3, luminescence, dose retest, confirmation (AID 435004); type: functional;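 also: stress induced by proteasome inhibitor MG132 added 30 min after compound; luciferase reporter driven by HSF1 response element in NIH3T3 cells; actives raise luminescence as potentiators of the MG132 stress response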
# T1 sequence (P38532 whole entry): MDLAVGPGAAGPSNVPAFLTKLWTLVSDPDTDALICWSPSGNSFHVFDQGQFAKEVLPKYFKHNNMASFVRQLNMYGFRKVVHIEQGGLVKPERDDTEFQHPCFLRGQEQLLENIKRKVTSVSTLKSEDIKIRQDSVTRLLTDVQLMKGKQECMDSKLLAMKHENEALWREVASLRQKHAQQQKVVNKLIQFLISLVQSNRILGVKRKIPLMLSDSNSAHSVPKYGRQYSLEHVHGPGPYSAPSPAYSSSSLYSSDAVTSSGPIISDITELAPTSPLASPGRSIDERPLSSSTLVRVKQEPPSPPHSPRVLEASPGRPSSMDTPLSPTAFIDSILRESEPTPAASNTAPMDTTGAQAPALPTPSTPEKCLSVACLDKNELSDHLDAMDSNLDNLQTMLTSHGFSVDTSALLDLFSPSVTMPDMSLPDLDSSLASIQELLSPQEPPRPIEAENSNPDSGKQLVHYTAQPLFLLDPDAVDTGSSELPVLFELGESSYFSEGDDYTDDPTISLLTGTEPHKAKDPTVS
# [8] = target: T2, Microphthalmia-associated transcription factor (Homo sapiens, UniProt O75030); test: reducers of TRPM1 reporter luminescence, concentration series – cell-based, SK-MEL-5, cherry-picked, set 3, MITF inhibitor project, dose response (AID 493073); type: functional;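 also: SK-MEL-5 melanoma cells with luciferase driven by the MITF target TRPM1 promoter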
# T2 sequence (O75030 whole entry): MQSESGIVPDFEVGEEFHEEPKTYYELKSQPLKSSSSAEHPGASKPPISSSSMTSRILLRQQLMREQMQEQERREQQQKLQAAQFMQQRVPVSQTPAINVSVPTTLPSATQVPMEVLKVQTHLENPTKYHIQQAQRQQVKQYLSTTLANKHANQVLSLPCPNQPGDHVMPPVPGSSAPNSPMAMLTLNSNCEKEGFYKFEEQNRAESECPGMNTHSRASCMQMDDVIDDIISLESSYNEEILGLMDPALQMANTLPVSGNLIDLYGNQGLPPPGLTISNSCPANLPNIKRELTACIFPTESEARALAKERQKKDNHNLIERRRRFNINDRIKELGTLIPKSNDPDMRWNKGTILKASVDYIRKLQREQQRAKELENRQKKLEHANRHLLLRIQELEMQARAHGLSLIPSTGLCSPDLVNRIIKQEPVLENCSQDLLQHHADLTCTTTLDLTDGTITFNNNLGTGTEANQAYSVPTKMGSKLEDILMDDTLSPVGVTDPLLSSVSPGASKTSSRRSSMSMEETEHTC
# [9] = target: T3, Replicative DNA helicase DnaB (Mycobacterium tuberculosis, UniProt P9WMR3); test: DnaB intein splicing inhibitors, dose response, biochemical, cell-free fluorescence (AID 449749); type: functional
# T3 sequence (P9WMR3 whole entry): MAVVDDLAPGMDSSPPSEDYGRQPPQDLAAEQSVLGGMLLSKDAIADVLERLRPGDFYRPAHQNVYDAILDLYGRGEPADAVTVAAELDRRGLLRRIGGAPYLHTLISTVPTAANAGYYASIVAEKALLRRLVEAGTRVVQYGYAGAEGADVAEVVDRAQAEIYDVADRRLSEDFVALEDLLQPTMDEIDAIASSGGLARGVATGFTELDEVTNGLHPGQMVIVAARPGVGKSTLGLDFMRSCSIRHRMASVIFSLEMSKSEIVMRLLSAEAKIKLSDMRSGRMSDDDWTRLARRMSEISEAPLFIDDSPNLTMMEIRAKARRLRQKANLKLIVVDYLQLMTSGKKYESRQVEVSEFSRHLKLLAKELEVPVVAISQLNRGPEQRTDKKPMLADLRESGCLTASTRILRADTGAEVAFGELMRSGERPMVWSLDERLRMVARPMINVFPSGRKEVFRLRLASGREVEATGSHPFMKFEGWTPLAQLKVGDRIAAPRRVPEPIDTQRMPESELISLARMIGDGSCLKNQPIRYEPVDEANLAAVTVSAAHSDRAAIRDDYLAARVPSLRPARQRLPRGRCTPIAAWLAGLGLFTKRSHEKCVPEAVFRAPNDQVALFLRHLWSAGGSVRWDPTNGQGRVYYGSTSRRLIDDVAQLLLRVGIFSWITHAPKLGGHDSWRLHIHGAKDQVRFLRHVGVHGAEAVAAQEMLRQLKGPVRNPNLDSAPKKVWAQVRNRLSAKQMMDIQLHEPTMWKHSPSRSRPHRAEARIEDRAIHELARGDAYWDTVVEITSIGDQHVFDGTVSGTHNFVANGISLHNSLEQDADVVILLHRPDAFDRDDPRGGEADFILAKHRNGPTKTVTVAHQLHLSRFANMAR
# [10] = target: T4, Protein RecA (Mycobacterium tuberculosis, UniProt P9WHJ3); test: Fluorescence Cell-Free Homogeneous Dose Retest to Identify Inhibitors of RecA-Intein Splicing Activity. [Related pubchem assays (depositor defined):AID2097, AID2223, AID489010, AID492950]; type: functional
# T4 sequence (P9WHJ3 whole entry): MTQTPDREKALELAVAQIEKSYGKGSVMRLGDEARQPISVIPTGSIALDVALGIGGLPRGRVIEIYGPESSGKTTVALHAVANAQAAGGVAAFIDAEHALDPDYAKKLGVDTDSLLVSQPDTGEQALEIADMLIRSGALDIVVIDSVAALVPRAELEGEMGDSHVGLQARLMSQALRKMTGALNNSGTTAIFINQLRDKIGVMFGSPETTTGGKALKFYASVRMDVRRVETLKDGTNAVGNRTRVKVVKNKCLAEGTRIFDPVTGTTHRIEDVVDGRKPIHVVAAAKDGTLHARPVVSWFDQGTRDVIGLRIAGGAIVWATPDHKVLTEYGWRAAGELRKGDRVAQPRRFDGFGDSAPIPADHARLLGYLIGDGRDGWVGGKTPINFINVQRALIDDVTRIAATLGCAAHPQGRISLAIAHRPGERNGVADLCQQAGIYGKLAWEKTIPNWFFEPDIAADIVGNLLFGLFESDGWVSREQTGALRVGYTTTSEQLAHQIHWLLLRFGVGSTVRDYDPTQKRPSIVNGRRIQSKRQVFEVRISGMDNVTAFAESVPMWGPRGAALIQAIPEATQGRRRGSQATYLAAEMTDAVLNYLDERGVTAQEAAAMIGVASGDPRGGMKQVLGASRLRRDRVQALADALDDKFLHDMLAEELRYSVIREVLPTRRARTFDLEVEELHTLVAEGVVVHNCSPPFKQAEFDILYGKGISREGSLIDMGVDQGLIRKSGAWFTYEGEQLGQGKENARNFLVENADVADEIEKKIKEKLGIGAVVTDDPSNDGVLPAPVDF
# [11] = test system: Streptococcus sp. 'group A'; test: Streptococcus pyogenes SK(-)GAS viability under kanamycin – luminescence, BacTiterGlo, confirmation, counter-screen for streptokinase expression inhibitor project, dose response (AID 1900); type: functional, organism-based
# [12] = target: T5, Streptokinase A (Streptococcus pyogenes serotype M1, UniProt P10520); test: viability-normalized secreted streptokinase activity reduction – plasminogen activation absorbance, OD405, dose response (AID 1914); type: functional, Streptococcus pyogenes M1 GAS;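 also: secreted streptokinase activity via plasminogen activation per viability signal from cell pellet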
# T5 sequence (P10520 whole entry): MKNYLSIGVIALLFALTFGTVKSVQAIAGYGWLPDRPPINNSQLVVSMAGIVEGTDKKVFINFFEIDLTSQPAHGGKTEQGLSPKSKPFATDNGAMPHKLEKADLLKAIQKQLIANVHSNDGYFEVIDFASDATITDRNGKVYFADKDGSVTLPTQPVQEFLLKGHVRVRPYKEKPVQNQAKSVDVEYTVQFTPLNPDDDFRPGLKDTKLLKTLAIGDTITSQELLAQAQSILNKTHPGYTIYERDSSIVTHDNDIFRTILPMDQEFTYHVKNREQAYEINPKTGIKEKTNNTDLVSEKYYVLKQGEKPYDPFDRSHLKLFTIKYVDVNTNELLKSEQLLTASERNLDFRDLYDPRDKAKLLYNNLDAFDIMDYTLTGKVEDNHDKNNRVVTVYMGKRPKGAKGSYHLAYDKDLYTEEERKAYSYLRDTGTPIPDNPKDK
# [13] = HPDE-C7 pancreatic duct cell viability loss – fluorescence, HTS (AID 430); type: functional, cell-based; details: Homo sapiens
# [14] = viability loss of HPDE-C7K cells – cell-based, fluorescence, HTS, primary screen (AID 431); type: functional; details: Homo sapiens
# [15] = target: T6, Calpain-2 catalytic subunit (Sus scrofa, UniProt P43367); test: m-calpain protease blockers, concentration series – biochemical, fluorogenic peptide substrate, dose response (AID 1420); type: functional
# T6 sequence (P43367 whole entry): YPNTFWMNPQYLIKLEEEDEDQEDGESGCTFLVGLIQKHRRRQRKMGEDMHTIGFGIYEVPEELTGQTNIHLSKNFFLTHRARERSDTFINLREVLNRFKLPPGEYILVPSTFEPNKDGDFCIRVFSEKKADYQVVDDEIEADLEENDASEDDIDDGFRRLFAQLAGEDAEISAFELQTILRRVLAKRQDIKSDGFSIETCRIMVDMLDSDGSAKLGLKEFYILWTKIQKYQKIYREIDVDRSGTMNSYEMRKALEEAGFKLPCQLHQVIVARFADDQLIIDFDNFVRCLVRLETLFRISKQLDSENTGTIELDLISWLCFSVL
# [16] = test system: Streptococcus; test: GAS UMAA2166 growth inhibition – luminescence, BacTiterGlo, counter-screen for streptokinase expression inhibitor project, dose response (AID 1915); type: functional, organism-based;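 also: potency for reduction of bacterial viability or growth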
# [17] = target: G-protein coupled receptor 55 (Homo sapiens, UniProt Q9Y2T6); test: selective activators of receptor GPR55 – imaging, U2OS cells, beta-arrestin-GFP redistribution, primary screen (AID 1961); type: functional
# G-protein coupled receptor 55, sequence (Q9Y2T6 whole entry): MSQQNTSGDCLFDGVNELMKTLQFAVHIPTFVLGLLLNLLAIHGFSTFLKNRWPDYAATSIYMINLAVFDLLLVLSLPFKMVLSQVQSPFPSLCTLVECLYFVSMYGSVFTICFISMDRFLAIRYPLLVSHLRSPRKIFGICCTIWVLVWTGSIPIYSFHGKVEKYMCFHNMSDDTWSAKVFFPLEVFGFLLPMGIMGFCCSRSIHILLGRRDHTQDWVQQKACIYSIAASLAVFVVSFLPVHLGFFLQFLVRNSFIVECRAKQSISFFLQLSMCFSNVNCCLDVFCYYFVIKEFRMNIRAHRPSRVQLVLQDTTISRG
# [18] = target: Heat shock protein HSP 90-alpha (Homo sapiens, UniProt P07900); type: functional, organism-based
# [19] = target: T7, Corticotropin-releasing factor receptor 2/Corticotropin-releasing factor-binding protein (Homo sapiens, UniProt P24387+Q13324); test: Dose Response confirmation of uHTS hits for small molecule antagonists of the CRF-binding protein and CRF-R2 receptor complex.; type: functional; details: read-out: IC50_Mean
# T7 sequence (Q13324 whole entry): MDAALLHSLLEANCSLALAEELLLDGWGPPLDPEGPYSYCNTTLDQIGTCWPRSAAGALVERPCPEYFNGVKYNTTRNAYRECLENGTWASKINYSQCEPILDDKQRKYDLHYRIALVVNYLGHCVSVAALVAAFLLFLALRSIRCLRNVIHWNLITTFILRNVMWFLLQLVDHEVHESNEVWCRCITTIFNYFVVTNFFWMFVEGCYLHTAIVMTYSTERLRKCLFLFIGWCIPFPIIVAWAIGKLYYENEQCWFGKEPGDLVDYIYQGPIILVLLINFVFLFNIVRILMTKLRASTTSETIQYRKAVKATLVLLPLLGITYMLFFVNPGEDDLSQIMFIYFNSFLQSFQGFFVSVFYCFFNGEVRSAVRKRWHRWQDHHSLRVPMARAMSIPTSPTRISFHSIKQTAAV
# T7 sequence (P24387 whole entry): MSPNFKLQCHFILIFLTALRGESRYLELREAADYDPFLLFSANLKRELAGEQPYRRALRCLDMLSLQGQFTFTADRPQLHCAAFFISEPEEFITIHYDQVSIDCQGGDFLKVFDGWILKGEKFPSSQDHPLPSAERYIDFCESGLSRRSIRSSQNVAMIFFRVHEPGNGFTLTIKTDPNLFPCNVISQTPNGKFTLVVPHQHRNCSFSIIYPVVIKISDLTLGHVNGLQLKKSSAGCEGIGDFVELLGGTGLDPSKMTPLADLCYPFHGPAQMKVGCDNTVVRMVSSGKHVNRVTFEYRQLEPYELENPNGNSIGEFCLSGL
# [20] = target: T7, Corticotropin-releasing factor receptor 2/Corticotropin-releasing factor-binding protein; test: activators of CRF receptor 2 with binding protein – uHTS hits, confirmation (AID 602473); type: functional; details: read-out: EC50_Mean
# [21] = target: Disintegrin and metalloproteinase domain-containing protein 17 (Homo sapiens, UniProt P78536); test: exosite inhibitors of ADAM17, dose response, biochemical (AID 743260)
# Disintegrin and metalloproteinase domain-containing protein 17, sequence (P78536 whole entry, the tested form may be a part): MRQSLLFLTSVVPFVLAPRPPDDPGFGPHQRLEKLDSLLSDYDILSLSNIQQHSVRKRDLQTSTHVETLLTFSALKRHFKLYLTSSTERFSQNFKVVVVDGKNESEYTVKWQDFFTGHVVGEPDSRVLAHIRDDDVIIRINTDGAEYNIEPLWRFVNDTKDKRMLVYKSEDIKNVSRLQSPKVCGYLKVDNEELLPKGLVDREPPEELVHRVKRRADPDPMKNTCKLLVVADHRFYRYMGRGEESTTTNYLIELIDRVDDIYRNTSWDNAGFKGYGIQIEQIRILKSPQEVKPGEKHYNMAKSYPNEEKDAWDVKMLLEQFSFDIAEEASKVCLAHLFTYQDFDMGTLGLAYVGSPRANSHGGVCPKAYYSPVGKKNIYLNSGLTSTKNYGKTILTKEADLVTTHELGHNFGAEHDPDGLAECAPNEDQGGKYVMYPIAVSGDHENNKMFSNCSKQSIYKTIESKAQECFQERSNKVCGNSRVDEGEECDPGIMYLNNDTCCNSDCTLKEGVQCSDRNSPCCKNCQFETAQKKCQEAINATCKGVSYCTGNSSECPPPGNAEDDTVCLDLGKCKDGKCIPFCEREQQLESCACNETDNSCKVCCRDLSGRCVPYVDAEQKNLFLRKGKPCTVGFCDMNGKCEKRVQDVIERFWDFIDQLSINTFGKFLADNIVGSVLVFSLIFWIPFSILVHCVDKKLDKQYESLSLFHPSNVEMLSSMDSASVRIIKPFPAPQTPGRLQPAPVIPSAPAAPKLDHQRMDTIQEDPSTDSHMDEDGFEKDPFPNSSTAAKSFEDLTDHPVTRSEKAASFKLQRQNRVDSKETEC
# [22] = target: Hexokinase (Trypanosoma brucei, UniProt Q38C41); test: Confirmation assay for inhibitors of Trypanosoma brucei hexokinase 1-Analogue-first series. [Related pubchem assays (depositor defined):AID1430, AID1632, AID2516, AID2560, AID2579, AID2600, AID449725, AID492951]; type: functional
# Hexokinase, sequence (Q38C41 whole entry): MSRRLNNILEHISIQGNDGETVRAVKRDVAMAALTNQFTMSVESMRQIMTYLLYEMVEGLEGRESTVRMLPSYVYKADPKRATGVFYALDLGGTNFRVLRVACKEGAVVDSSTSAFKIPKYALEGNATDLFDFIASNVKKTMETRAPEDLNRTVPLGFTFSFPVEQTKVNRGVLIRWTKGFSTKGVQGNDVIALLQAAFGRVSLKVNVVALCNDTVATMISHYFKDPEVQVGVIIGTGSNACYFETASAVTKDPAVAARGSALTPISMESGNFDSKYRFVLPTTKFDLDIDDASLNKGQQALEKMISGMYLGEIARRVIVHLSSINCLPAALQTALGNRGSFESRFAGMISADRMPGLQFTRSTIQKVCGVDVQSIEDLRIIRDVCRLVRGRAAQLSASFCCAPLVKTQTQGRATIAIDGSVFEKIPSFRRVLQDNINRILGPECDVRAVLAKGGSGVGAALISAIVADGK
smiles,measurement,setting,value
Cc1ccc(C2=NN(C(=O)CCl)C(c3cccs3)C2)o1 (stereo not drawn),EC50,[1],8.03 µM (active)
same,IC50,[2],2.11 µM (active)
same,IC50,[3],> 20 µM (inactive)
same,EC50,[4],8.81 µM (active)
same,IC50,[5],4.05 µM (active)
same,IC50,[6],> 20 µM (inactive)
same,EC50,[7],35.7 µM (inconclusive)
same,AC50,[8],6.1 µM (active)
same,AC50,[9],1.52 µM (active)
same,EC50,[10],1.51 µM (active)
CCCOC(=O)c1ccc(Oc2c[nH]nc2-c2ccc(OCC)cc2O)cc1,EC50,[11],8.69 µM (active)
same,EC50,[12],> 150 µM (not active)
same,EC50,[13],6.6 µM (active)
same,EC50,[14],6.96 µM (active)
same,IC50,[15],19.6 µM (not active)
same,EC50,[16],33.8 µM (active)
same,EC50,[17],> 32 µM (inactive)
same,AC50,[18],7.92 µM (active)
same,IC50,[19],> 47.1 µM (inactive)
same,EC50,[20],> 53 µM (inactive)
same,IC50,[21],> 69.5 µM (inactive)
O=c1c2cc(Br)ccc2sn1-c1ccccc1,IC50,[22],> 25 µM (inactive)
COc1ccc(C(=O)NCC(=O)O)cc1,IC50,[22],> 25 µM (inactive)
